Reference: US10590166B2, “Peptides useable for treating cancer” (Allegro Pharmaceuticals, LLC, priority 2009, dated 2020)

Tests used:
New Zealand Rabbits = experiment: Ocular toxicity of intravitreal Compound 1 with and without urea (Table A); format: in vivo; details: single intravitreal injection, 24 hour follow up, 8 eyes per group
[1] = tested on: human umbilical vein endothelial cells (HUVEC); experiment: wound-healing assay with HUVEC on fibronectin coated surface; format: cell-based
Method: To test the anti-adhesive properties of RGCysteic Acid peptides in vitro, a wound-healing assay was performed with human umbilical vein endothelial cells (HUVEC). HUVEC were seeded and allowed to grow to a confluent monolayer on a fibronectin coated surface. A wound (a scratch rift) was created by dragging a small pipette tip across the HUVEC monolayer. The cells were then incubated in fresh growth medium containing the RGCysteic Acid peptide (Compound 1; 10 mM), and the wound area was imaged in five different fields at various time points (0, 4, 8, 12, 16, 20, 24 hours) to determine the kinetics of wound closure. The level of wound closure was quantified by determining the fraction of the original wound area that was re-occupied by HUVEC through cellular adhesion, migration and proliferation.
In control studies, the following peptides were used in place of RGCysteic Acid (Compound 1): cyclic-RGD peptide (1 mM), positive control) and RGE peptide (1 mM, negative control).
The results are shown as a percentage of the original area. The error bars correspond to the standard deviation in wound size across 2-6 independent trials.

rho/VEGF mice = experiment: Subretinal neovascularization in transgenic rho/VEGF mice expressing human VEGF; format: in vivo; details: 10 μg, single intraocular injection, seven days post-dose, 3 animals
Method: Transgenic mice in which the rhodopsin promoter drives expression of human VEGF in photoreceptors (rho/VEGF mice) were randomized into separate treatment groups and studies were performed to provide the following comparisons:
Pretreatment measurements of the area of subretinal neovascularization were made on each animal using image analysis by a masked observer. Each animal received its designated treatment in a single intraocular injection. Seven days post-dose, measurements of the area of subretinal neovascularization were again made and compared to the pre-dose measurements to determine the change in subretinal neovascularization area. Also, the animals were sacrificed and the retinas were dissected, immunostained with GSA lectin and examined by fluorescence microscopy.

## NC(N)=O [12% Urea solution, Urea, reference compound]
New Zealand Rabbits
  Total PVD: 0% Total PVD
  Vitreous liquefaction: No liquefaction

## CC(C)[C@H]1C(=O)N[C@@H](CCCN=C(N)N)C(=O)NCC(=O)N[C@@H](CC(=O)O)C(=O)N[C@H](Cc2ccccc2)C(=O)N1C [Cyclic RGD, N-methylated cyclic-RGDf-N(Me)V, reference compound]
[1]; HUVEC wound healing model, in 12 hours
  inhibition of cell adhesion: 40%
[1]; after 24 hours, Compound 1 10 mM, control peptides 1 mM
  inhibition of HUVEC wound healing: 45%

B1: ranibizumab: recombinant humanized IgG1 kappa isotype monoclonal antibody fragment (antibody, chains of the INN, looked up, V domains shown)
VH: EVQLVESGGGLVQPGGSLRLSCAASGYDFTHYGMNWVRQAPGKGLEWVGWINTYTGEPTYAADFKRRFTFSLDTSKSTAYLQMNSLRAEDTAVYYCAKYPYYYGTSHWYFDVWGQGTLVTVSS
VL: DIQLTQSPSSLSASVGDRVTITCSASQDISNYLNWYQQKPGKAPKVLIYFTSSLHSGVPSRFSGSGSGTDFTLTISSLQPEDFATYYCQQYSTVPWTFGQGTKVEIK
modifications: Fab
notes: recombinant humanized IgG1 kappa isotype monoclonal antibody fragment
rho/VEGF mice
  greater reduction in subretinal neovascularization area than control animals (Phosphate Buffered Saline): 38.96%
